Measurements published in US9884818B2, “Sulphamoylpyrrolamide derivatives and the use thereof as medicaments for the treatment of hepatitis B” (Janssen Sciences Ireland UC, priority 2013, dated 2018).
pEC50: −log10 of the molar value.

How the values were obtained:
[1] = Cytotoxicity in HepG2 cells, Resazurin viability assay; details: human, HepG2 cells, HepG2 4 days CC50 (μM), incubated for 4 days, Resazurin assay
HBV [2] = test: Anti-HBV activity, HepG2.117 inducibly HBV producing cell line (Tet-off), intracellular HBV DNA by realtime PCR; assay type: cell-based; details: Hepatitis B virus, HepG2.117, 72 h, HepG2.117 cells, 3 days of treatment, intracellular HBV DNA; read-out: HepG2 117 EC50
HBV [3] = test: Anti-HBV activity, HepG2.2.15 stable transfected cell line, HBV DNA from secreted virions by realtime PCR; assay type: cell-based; details: Hepatitis B virus, HepG2.2.15, 144 h, HepG2.2.15 cells, 6 days of treatment, HBV DNA from secreted virions; read-out: HepG2 2.15 EC50

SMILES	CC50 at 4 days [1]	pEC50 (HBV [2])	pEC50 (HBV [3])
Cn1cc(S(=O)(=O)NC2CC(F)(F)C2)cc1C(=O)Nc1cc(F)c(F)c(Cl)c1 [Compound 164, N-(3-Chloro-4,5-difluorophenyl)-4-[(3,3-difluorocyclobutyl)sulfamoyl]-1-methyl-1H-pyrrole-2-carboxamide]	> 25 µM	6.89	6.89
Cn1cc(S(=O)(=O)NC2(C)COC2)cc1C(=O)Nc1ccc(F)c(C(F)(F)F)c1 [Compound 43, N-[4-fluoro-3-(trifluoromethyl)phenyl]-1-methyl-4-[(3-methyloxetan-3-yl)-sulfamoyl]pyrrole-2-carboxamide]	> 25 µM	6.89	6.96
C[C@@H](NS(=O)(=O)c1cc(C(=O)Nc2ccc(F)c(Cl)c2)n(C)c1)C(F)(F)F [Compound 123, N-(3-Chloro-4-fluorophenyl)-1-methyl-4-{[(1R)-2,2,2-trifluoro-1-methylethyl]sulfamoyl}-1H-pyrrole-2-carboxamide]	> 25 µM	7.40	7.40
CC(NS(=O)(=O)c1cc(C(=O)Nc2ccc(F)c(Cl)c2F)n(C)c1)C(F)F (stereo not drawn) [Compound 252, N-(3-chloro-2,4-difluoro-phenyl)-4-[(2,2-difluoro-1-methyl-ethyl)sulfamoyl]-1-methyl-1H-pyrrole-2-carboxamide]	> 25 µM	7.10	7.30
Cn1cc(S(=O)(=O)NC2(C(F)(F)F)CCC2)cc1C(=O)Nc1ccc(F)c(Cl)c1F [Compound 263, N-(3-chloro-2,4-difluoro-phenyl)-1-methyl-4-{[1-(trifluoromethyl)-cyclobutyl]sulfamoyl}-1H-pyrrole-2-carboxamide]	> 25 µM	8.10	8.30
Cn1cc(S(=O)(=O)N[C@H]2C[C@@H](O)C2)cc1C(=O)Nc1ccc(F)c(F)c1 [Compound 25, N-(3,4-difluorophenyl)-4-[(3-hydroxycyclobutyl)sulfamoyl]-1-methyl-pyrrole-2-carboxamide]	> 25 µM	6.64	6.47
CC(C)NS(=O)(=O)c1cc(C(=O)Nc2cccc(C#N)c2F)n(C)c1 [Compound 176, N-(3-Cyano-2-fluorophenyl)-1-methyl-4-[(1-methylyl)sulfamoyl]-1H-pyrrole-2-carboxamide]	> 25 µM	6.43	6.30
Cn1cc(S(=O)(=O)NC(C)(C)CCO)cc1C(=O)Nc1ccc(F)c(C#N)c1 [Compound 296, N-(3-cyano-4-fluoro-phenyl)-4-[(3-hydroxy-1,1-dimethyl-propyl)sulfamoyl]-1-methyl-pyrrole-2-carboxamide]	> 25 µM	6.64	7.00
Cc1c(S(=O)(=O)NC2(C)COC2)cn(C)c1C(=O)Nc1ccc(F)c(C(F)(F)F)c1 [Compound 179, N-[4-Fluoro-3-(trifluoromethyl)phenyl]-1,3-dimethyl-4-[(3-methyloxetan-3-yl)sulfamoyl]-1H-pyrrole-2-carboxamide]	> 25 µM	6.57	6.52
C[C@H](NS(=O)(=O)c1cc(C(=O)Nc2cc(F)c(F)c(Br)c2)n(C)c1)C(F)(F)F [Compound 100, N-(3-Bromo-4,5-difluorophenyl)-1-methyl-4-{[(1S)-2,2,2-trifluoro-1-methylethyl]sulfamoyl}-1H-pyrrole-2-carboxamide]	12.2 µM	7.30	7.22
C[C@H](NS(=O)(=O)c1cc(C(=O)Nc2ccc(F)c(Br)c2)n(C)c1)C(F)(F)F [Compound 101, N-(3-Bromo-4-fluorophenyl)-1-methyl-4-{[(1S)-2,2,2-trifluoro-1-methylethyl]sulfamoyl}-1H-pyrrole-2-carboxamide]	> 25 µM	7.52	7.52
Cn1cc(S(=O)(=O)NC(C)(C)C)cc1C(=O)Nc1cc(F)c(F)c(F)c1 [Compound 68, 4-(tert-butylsulfamoyl)-1-methyl-N-(3,4,5-trifluorophenyl)pyrrole-2-carboxamide]	> 25 µM	7.15	7.15
